The structures appear in SMILES notation. “Also recorded” adds a separate entry of the source.

Series [1] is described as follows: solubility and stability in alkaline medium (physicochemical properties). To be noted: for stability in basic substances / alkaline water: basic substances such as pyridine, monoethanolamine, and alkaline water; for Solubility: Also soluble in basic substances: soluble but readily decomposed; for Solubility: Insoluble in: solvents listed as Insoluble; for Solubility: Soluble in: solvents listed as Soluble.

The subject of series [2] is rabbit aorta. The series can be described thus: inhibition of contraction using extirpated blood vessel preparations (vasodilative activity). As to conditions: contraction by 20 mM KCl, added 30 minutes before; for inhibition at 10 µg/mL: final concentration 10.0 μg/ml. Here is the method: The vosodilative activity of KS-504a, KS-504b and KS-504d is explained below, referring to Experimental Example 1 on inhibition of contraction using extirpated blood vessel preparations.
White bastard rabbits (male, 2-3 kg) were incised along the abdominal median line. The aorta was cut out with a length of about 2-2.5 cm from the venter, and spiral strips with a width of 3-4 mm were prepared therefrom. The strips were ligated with silk yarn at both ends, and the lower end was connected to a stationary rod, whereas the upper end was connected to a tension transducer (TB-612T, a product of Nippon Koden Co., Ltd.). The strips were suspended under an initial tension of 1.5 g. The strips were soaked in a Krebs-Henseleit solution at 32° C. whose composition in g/l was NaCl: 6.92, KCl: 0.35, MgSO4.7H2 O: 0.29, CaCl2.2H2 O: 0.37, KH2 PO4 : 0.16, NaHCO3 :2.1 and glucose: 1.0 in a Magnus tube, and a gas (95% O2 and 5% CO2) was introduced therein. After being stabilized for 1 to 2 hours, the preparations were used for the experiment. Potassium chloride was added to the Magnus tube to a final concentration of 20 mM. The resulting contraction reaction was recorded on a polygraph (AM-6000, a product of Nippon Koden Co., Ltd.) in equal scales through the tension transducer. KS-504a, KS-504b and KS-504d were each dissolved in dimethyl sulfoxide to a concentration of mg/ml, and the solutions were properly diluted with a Krebs-Henseleit solution and added to the Magnus tube 30 minutes before the application of the contracting
*The rate of inhibition of contraction was calculated according to the
Rate of inhibition of contraction (%)

A short description of series [3]: minimal lethal dose in mice. Format: in vivo. To be noted: p.o.
For series [4], the system named is rat peritoneal exudate cells. The series can be described thus: inhibition of histamine secretion from rat peritoneal exudate cells. Format: cell-based. To be noted: 10 min, phosphatidyl-L-serine and concanavalin A, 37° C, read-out: Rate of suppression of histamine secretion. As to the method: Influence on histamine secretion from rat peritoneal exudate cells
Rats with body weights of 150-180 g were killed under dry ether anesthesia by exsanguination, and mast cell medium prepared according to the method of Sullivan, et al. J. Immunol. 114, 1473 (1975)](hereinafter abbreviated as MCM, composition: 150mM NaCl, 3.7 mM KCl, 3 mM Na2 HPO4, 3.5 mM KH2 PO4, 1 mM CaCl2, 5.6 mM glucose, 0.1% bovine serum albumin, 10 U/ml heparin) was injected intraperitoneally into the animals at 6 ml/animal. The abdominal parts were massaged for two minutes, and then cut open to sample exuded solution in the abdominal cavities. The exuded solution collected from 6 rats was centrifuged a 100×g for 5 minutes at 4° C, and the precipitate was mixed with an appropriate amount of water-cooled MCM, and washed three times to prepare a cell suspension (peritoneal exudate cells, hereinafter abbreviated as PEC) containing mast cells at a final concentration of about 3×10^4 cells/ml. Identification of mast cells was carried out by staining intracellular granules with 0.05% Toluidine Blue. Then, 1 ml of the thus obtained PEC was preincubated at 37° C for 10 minutes, and then admixed with 0.1 ml of test solutions at various concentrations and incubated for 10 minutes. The incubated mixtures were further admixed with 0.1 ml each of 100 μg/ml phosphatidyl-L-serine and 1000 μg/ml concanavalin A, followed by incubation for 15 minutes. The reaction was discontinued by addition of 3 ml of ice-cooled physiological saline solution, and the mixture was centrifuged at 1100×g for 10 minutes at 4° C. to obtain a supernatant and a residue. Histamine contents of the supernatant and the residue were measured by fluorometry according to the method of Komatsu [Allergy 27, 67 (1978)].
The histamine secretion rate was defined by a percentage of histamine content in the supernatant to total histamine content in the cells. The rate of suppression of histamine secretion by the test solution was calculated according to the following equation.
Rate of suppression of secretion (%) [formula]

The mark [5] stands for this setting: Oryctolagus cuniculus, read-out: Rate of inhibition of contraction.

As to `OC1C(Cl)(Cl)C(=C(Cl)Cl)C2(OC2Cl)C1(Cl)Cl` (stereo not drawn) [KS-504b], in series [1], the “stability in basic substances / alkaline water” value is listed as “readily decomposed”; the “Solubility: Also soluble in basic substances” value (“Solubility: Also soluble” below) is “pyridine, monoethanolamine, etc. and alkaline”; the “Solubility: Insoluble in” value is “water, acidic water”; the “Solubility: Soluble in” value is recorded as “methanol, chloroform, acetone, ethyl; also recorded: acetate, acetonotrile; also recorded: dimethylsulfoxide”. In series [2] (setting [5]), the inhibition at 10 µg/mL is 100%. Also, the “Rate of inhibition of contraction” value in series [2] (final concentration 1.0 μg/ml) came out at 76%. Further, the “Rate of inhibition of contraction” value in series [2] (final concentration 3.0 μg/ml) is recorded as 80%.
As for `OC1C(Cl)(Cl)C(=C(Cl)Cl)C(O)(C(Cl)Cl)C1(Cl)Cl` (stereo not drawn) [KS-504d], in series [1], the “stability in basic substances / alkaline water” value is “readily decomposed”; the “Solubility: Also soluble” value was “pyridine, monoethanolamine, etc. and alkaline”; the “Solubility: Soluble in” value was “acetone, ethyl acetate, acetonitrile; also recorded: benzene, methanol, chloroform; also recorded: hexane, water, acidic water”. For the same molecule, the inhibition at 10 µg/mL in series [2] (setting [5]) is 6.9%. The inhibition at 30 µg/mL in series [2] (Oryctolagus cuniculus, final concentration 30.0 μg/ml, read-out: Rate of inhibition of contraction) was found to be 91%.
As for `OC1C(Cl)(Cl)C(=C(Cl)Cl)C2(OC2Cl)C1(Cl)Cl` (stereo not drawn) [KS-504a], in series [1], the “stability in basic substances / alkaline water” value is reported as “readily decomposed”; the “Solubility: Also soluble” value was “pyridine, monoethanolamine, etc. and alkaline”; the “Solubility: Insoluble in” value is recorded as “water, acidic water”; the “Solubility: Soluble in” value was “methanol, n-butanol, chloroform; also recorded: acetone, ethyl acetate; also recorded: dimethylformamide, dimethylsulfoxide; also recorded: benzene, acetic acid, hexane”. Further, the inhibition at 0.1 µg/mL in series [2] (Oryctolagus cuniculus, final concentration 0.1 μg/ml, read-out: Rate of inhibition of contraction) was found to be 37%. Also, the inhibition at 1 µg/mL in series [2] (Oryctolagus cuniculus, final concentration 1.0 μg/ml, read-out: Rate of inhibition of contraction) was found to be 59%. Moreover, the inhibition at 3 µg/mL in series [2] (Oryctolagus cuniculus, final concentration 3.0 μg/ml, read-out: Rate of inhibition of contraction) is 82%. The molecule also yielded a minimal lethal dose in series [3] of 300 mg/kg.
Regarding `O=CC1=C(C(Cl)(Cl)Cl)C(Cl)(Cl)C(O)C1(Cl)Cl` (stereo not drawn) [KS-504e], in series [1], the “stability in basic substances / alkaline water” value is reported as “readily decomposed”; the “Solubility: Also soluble” value is “pyridine, monoethanolamine, etc. and alkaline”; the “Solubility: Insoluble in” value is on record as “water, acidic water”; the “Solubility: Soluble in” value is recorded as “methanol, chloroform, acetone, ethyl; also recorded: acetate, acetonitrile; also recorded: dimethylsulfoxide”. In addition, the inhibition at 0.03 µg/mL in series [4] (test solution 0.03 μg/ml) is 15%. Also, the inhibition at 0.1 µg/mL in series [4] (test solution 0.1 μg/ml) was determined as 62%. In addition, the inhibition at 0.3 µg/mL in series [4] (test solution 0.3 μg/ml) amounted to 100%.
